PMC12606464, “Investigating NFE2L1 activators for targeted protein aggregate clearance: a follow-up study” (RSC Medicinal Chemistry, 2025)

Test system: EGFP-HttQ74 aggregates in U2OS cells
Assay: Analysis of polyQ (EGFP-HttQ74) aggregation in U2OS cells
Assay type: cell-based
Settings: U2OS EGFP-HttQ74, 5 μM, 24 h, with BOC-D-FMK
Protocol: Considering these earlier findings, we assessed the impact of the most promising compound, RUN-89, on protein aggregate formation in cells. U2OS cells were transfected with the EGFP-HttQ74 plasmid, a model for polyglutamine (polyQ) aggregation, and then treated with the caspase inhibitor BOC-D-FMK in combination with either 5 μM RUN compounds or a vehicle control for 24 hours prior to the microscopy analysis (Fig. 4). […] A decrease in aggregate size leads to an increase in their number, as the formation of large aggregates is prevented. Instead, multiple smaller aggregates are formed, which, according to our assumption, could be more easily degraded (Fig. 4B). […] Representative fluorescence microscopy images of U2OS cells expressing EGFP-HttQ74 treated with RUN-89 are shown in Fig. 4D, highlighting the difference between RUN-89-treated and vehicle-treated cells.
U2OS cells expressing EGFP-HttQ74 were treated for 24 hours with either the caspase inhibitor BOC-D-FMK, 5 μM RUN compounds, or DMSO (negative control). In total, cells from three independent experiments were analyzed (n = 3) and from every well 10 areas were screened. […] The volume value was measured in voxels. […] (D) Fluorescence microscopy images represent U2OS cells overexpressing EGFP-HttQ74 after treatment with RUN-89 and DMSO for 24 h. […]
instructions. […] Data were expressed as a fold change relative to the corresponding DMSO control. […]

For `COc1ccc(/C=C2\CC(NC(=O)C3CCCC3)C/C(=C\c3ccc(OC)c(OC)c3)C2=O)cc1OC` (stereo not shown) [RUN-89], the “Number of aggregates per cell” value was 4.545.
